Converted amounts (≈) assume the structure as drawn. The source made the active and inactive calls. No cut-off for these calls is given here.
What was measured:
[1] = test system: Candida albicans; experiment: Antifungal activity against Candida albicans assessed as fungal growth inhibition by CLSI protocol based microbroth dilution method; type: functional
[2] = test system: Candida albicans; experiment: Antifungal activity against Candida albicans ATCC 90023 assessed as fungal growth inhibition by CLSI protocol based microbroth dilution method; type: functional
[3] = test system: Candida tropicalis; experiment: Antifungal activity against Candida tropicalis assessed as fungal growth inhibition by CLSI protocol based microbroth dilution method; type: functional
[4] = test system: Aspergillus fumigatus; experiment: Antifungal activity against Aspergillus fumigatus assessed as fungal growth inhibition by CLSI protocol based microbroth dilution method; type: functional
[5] = test system: Candida parapsilosis; experiment: Antifungal activity against Candida parapsilosis ATCC 22019 assessed as fungal growth inhibition by CLSI protocol based microbroth dilution method; type: functional; conditions: Lodderomyces parapsilosis
[6] = Hemolytic activity in human RBC; type: cell-based, Erythrocyte; conditions: human red blood cells (erythrocytes)
[7] = test system: Candida albicans; experiment: Antifungal activity against Candida albicans measured after 8 passages; type: functional, organism-based

Row | Compound | MIC [1] [µg/mL] | MIC [2] [µg/mL] | MIC [3] [µg/mL] | MIC [4] [µg/mL] | MIC [5] [µg/mL] | HC50 [6] [µg/mL] | Activity [7]
1 | CCCCCCCCCCCCN1CCN(c2ncnc3c2ncn3CC(=O)c2nccs2)CC1 | 4 (≈ 8.04 µM) | 16 (≈ 32.1 µM) | 8 (≈ 16.1 µM) | 16 (≈ 32.1 µM) | 8 (≈ 16.1 µM) | > 256 | –
2 | CCOC(=O)CN1CCN(c2ncnc3c2ncn3CC(O)c2nccs2)CC1 (configuration not stated) | 128 (≈ 307 µM) | 64 (≈ 153 µM) | 64 (≈ 153 µM) | 32 (≈ 76.6 µM) | 128 (≈ 307 µM) | > 256 | –
3 | O=C(Cn1cnc2c(N3CCN(CC(=O)N4CCCC4)CC3)ncnc21)c1nccs1 | 2 (≈ 4.54 µM) | 256 (≈ 581 µM) | 32 (≈ 72.6 µM) | 64 (≈ 145 µM) | 128 (≈ 291 µM) | > 256 | –
4 | CCN1CCN(c2ncnc3c2ncn3CC(=O)c2nccs2)CC1 | 32 (≈ 89.5 µM) | 16 (≈ 44.8 µM) | 16 (≈ 44.8 µM) | 32 (≈ 89.5 µM) | 256 (≈ 716 µM) | > 256 | –
5 | CCCCCCCCN1CCN(c2ncnc3c2ncn3CC(=O)c2nccs2)CC1 | 2 (≈ 4.53 µM) | 256 (≈ 580 µM) | 16 (≈ 36.2 µM) | 64 (≈ 145 µM) | 16 (≈ 36.2 µM) | > 256 | –
6 | O=C(Cn1cnc2c(N3CCN(Cc4ccc(Cl)cc4)CC3)ncnc21)c1nccs1 | 32 (≈ 70.5 µM) | 128 (≈ 282 µM) | 4 (≈ 8.81 µM) | 64 (≈ 141 µM) | 64 (≈ 141 µM) | > 256 | –
7 | CCOC(=O)CN1CCN(c2ncnc3c2ncn3C/C(=N/OC)c2nccs2)CC1 | 8 (≈ 18 µM) | 64 (≈ 144 µM) | 64 (≈ 144 µM) | 32 (≈ 72 µM) | 128 (≈ 288 µM) | > 256 | –
8 | C=CCN1CCN(c2ncnc3c2ncn3CC(=O)c2nccs2)CC1 | 4 (≈ 10.8 µM) | 64 (≈ 173 µM) | 32 (≈ 86.6 µM) | 64 (≈ 173 µM) | 8 (≈ 21.7 µM) | > 256 | –
9 | CCCCCCCCCCCCCCCCCCN1CCN(c2ncnc3c2ncn3CC(=O)c2nccs2)CC1 | 2 (≈ 3.44 µM) | 256 (≈ 440 µM) | 64 (≈ 110 µM) | 32 (≈ 55 µM) | 128 (≈ 220 µM) | > 256 | –
10 | CCCCN1CCN(c2ncnc3c2ncn3CC(=O)c2nccs2)CC1 | 4 (≈ 10.4 µM) | 64 (≈ 166 µM) | 128 (≈ 332 µM) | 256 (≈ 664 µM) | 64 (≈ 166 µM) | > 256 | –
11 | N#CCN(CC#N)C(=O)CN1CCN(c2ncnc3c2ncn3CC(=O)c2nccs2)CC1 | 16 (≈ 34.4 µM) | 32 (≈ 68.9 µM) | 64 (≈ 138 µM) | 64 (≈ 138 µM) | 128 (≈ 276 µM) | > 256 | –
12 | O=C(Cn1cnc2c(N3CCN(CCO)CC3)ncnc21)c1nccs1 | 1 (≈ 2.68 µM) | 256 (≈ 686 µM) | 64 (≈ 171 µM) | 64 (≈ 171 µM) | 128 (≈ 343 µM) | > 256 | –
13 | O=C(Cn1cnc2c(N3CCNCC3)ncnc21)c1nccs1 | 64 (≈ 194 µM) | 32 (≈ 97.1 µM) | 32 (≈ 97.1 µM) | 64 (≈ 194 µM) | 256 (≈ 777 µM) | > 256 | –
14 | OC(Cn1cncn1)(Cn1cncn1)c1ccc(F)cc1F [FLUCONAZOLE] | 4 (≈ 13.1 µM) | 2 (≈ 6.53 µM) | 8 (≈ 26.1 µM) | 256 (≈ 836 µM) | 4 (≈ 13.1 µM) | > 256 | Active
15 | O=C(Cn1cnc2c(N3CCN(Cc4ccc([N+](=O)[O-])cc4)CC3)ncnc21)c1nccs1 | 8 (≈ 17.2 µM) | 128 (≈ 276 µM) | 64 (≈ 138 µM) | 32 (≈ 68.9 µM) | 64 (≈ 138 µM) | > 256 | –
16 | O=C(Cn1cnc2c(N3CCCC3)ncnc21)c1nccs1 | 16 (≈ 50.9 µM) | 32 (≈ 102 µM) | 64 (≈ 204 µM) | 32 (≈ 102 µM) | 32 (≈ 102 µM) | > 256 | –

Source: ChEMBL document CHEMBL4825682, “Discovery of novel purinylthiazolylethanone derivatives as anti-Candida albicans agents through possible multifaceted mechanisms” (Eur J Med Chem, 2021)
